Data published in PMC5855688, “BC-Box Motif-Mediated Neuronal Differentiation of Somatic Stem Cells” (International Journal of Molecular Sciences, 2018).

Tested on: skin-derived precursors (SKPs)
Experiment: Neurite outgrowth / morphological evaluation of neuronal differentiation
Assay type: cell-based, rat (neonate Wistar)
Details: delivered with TAT PTD, 1 to 5 μM
Procedure: Rodent skin-derived precursor cells (SKPs), which can differentiate to neurons, were used. SKPs were previously isolated from the back dermis of neonate Wistar rats by the authors. These cells were cultured in growth medium composed of DMEM/F12 (1:1; Gibco, Grand Island, NY, USA) containing 2% B27 supplement (Gibco), 20 ng/mL epidermal growth factor (EGF; Upstate Biotechnology, Lake Placid, NY, USA), and 40 ng/mL bFGF (PeproTech EC Ltd., Rocky Hill, NJ, USA) in a humidified incubator at 37 °C with 5% CO2. The floating clusters of cultured cells were centrifuged and dissociated into a single-cell suspension by use of a Pasteur pipette with a flame-polished tip. These single cells were then re-suspended into at a concentration of 50,000 cells/mL for passage or experiments. […]
Neurite outgrowth with length exceeding the diameter of the neuronal soma is often assessed as a morphological index of neuronal differentiation. […] Thereafter, neurite outgrowth was evaluated with the following 4 levels: +++, for above 50% of the cells showing neurite outgrowth; ++, for 20–50% with neurite outgrowth; +, for 5–19% having neurite outgrowth; and −, for below 5% of the cells with neurite outgrowth.

| Sequence | Neurite Outgrowth Activity (BC-box motif plus five C-terminal amino acids peptides) | Neurite Outgrowth Activity (BC-box motif alone (10-residue) peptides) |
| --- | --- | --- |
| YARAAARQARASLTHLCRLEIRSSIK [ASB3 BC-box motif plus five amino acids] | ++ (20–50% with neurite outgrowth) | – |
| YARAAARQARASLTHLCRLEI [ASB3 BC-box motif alone] | – | - (below 5% of the cells with neurite outgrowth) |
